# Data taken from patent US20260285853A1, “COMPOUNDS AND METHODS FOR MODULATING SPLICING” (REMIX THERAPEUTICS INC., priority 2023, published 2026).
# Read-outs that look alike come from different tables or passages of the source.
# Key:
# Type in all cases: cell-based
# [1] = tested on: SH-SY5Y (human neuroblastoma) cells; test: Cell viability, Cell Titer Glo 2.0 assay; settings: read-out: Viability SHSY5Y.3 GI50
# Procedure: Compounds described herein were screened for toxicity in K562 (human chronic myelogenous leukemia) and SH-SY5Y (human neuroblastoma) cells using a Cell Titer Glo 2.0 assay.
# • Promega CellTiter-Glo® 2.0 Cell Viability Assay (cat #G9241) • Corning 384-well TC-treated microplates (cat #3570)
# Cells were plated at 500 cells/well (K562 cells) in 45 μL of IMDM supplemented with 10% FBS in a 384-well opaque plate. Wells containing only medium were used as a blank control. Test compounds (e.g., compounds of Formula (I) or (II) were first serially diluted in DMSO then diluted 1:100 with IMDM+10% FBS. The final concentration of DMSO was 0.1% in each well. The cells were incubated for 72 hours at 37° C. and 5% CO2 before assaying with Cell Titer Glo 2.0 reagent.
# HTT mRNA [2] = test: Splicing RT-qPCR assay (THP), Table 2A
# MYB mRNA [3] = test: Gene panel canonical junction qPCR assay, decrease in CJ mRNA, Table 3
# Procedure: (§1) Compounds described herein were used to modulate RNA transcript abundance in cells. The expression of a target mRNA was measured by detecting the formation of an exon-exon junction in the canonical transcript (CJ). A compound mediated exon-inclusion event was detected by observing an increase in formation of a new junction with an alternative exon (AJ). Real-time qPCR assays were used to detect these splicing switches and interrogate the potency of various compounds towards different target genes. A high-throughput real time quantitative PCR (RT-qPCR) assay was developed to measure these two isoforms of the mRNA (CJ and AJ) for exemplary genes, such as HTT, SMN2, and MYB, together with a control housekeeping gene, GAPDH or GUSB or PPIA, used for normalization. Briefly, the A673 or K562 cell line was treated with various compounds described herein (e.g., compounds of Formula (I)). After treatment, the levels of the HTT, MYB, or SMN2 mRNA targets were determined from each sample of cell lysate by cDNA synthesis followed by qPCR.
# (§2) The A673 cell line was cultured in DMEM with 10% FBS. Cells were diluted with full growth media and plated in a 96-well plate (15,000 cells in 100 ul media per well). The plate was incubated at 37° C. with 5% CO2 for 24 hours to allow cells to adhere. An 11-point 3-fold serial dilution of the compounds was made in DMSO then diluted in media in an intermediate plate. Compounds were transferred from the intermediate plate to the cell plate with the top dose at a final concentration of 10 uM in the well. Final DMSO concentration was kept at or below 0.25%. The cell plate was returned to the incubator at 37° C. with 5% CO2 for an additional 24 hours.
# (§3) The K562 cell line was cultured in IMDM with 10% FBS. For K562, cells were diluted with full growth media and plated in either a 96-well plate (50,000 cells in 50 uL media per well) or a 384-well plate (8,000-40,000 cells in 45 uL media per well). An 11-point 3-fold serial dilution of the compounds were made in DMSO then diluted in media in an intermediate plate. Compound was transferred from the intermediate plate to the cell plate with the top dose at a final concentration of 10 uM in the well. Final DMSO concentration was kept at or below 0.25%. Final volume was 100 uL for 96-well plate and 50 uL for 384-well plate. The cell plate was then placed in an incubator at 37° C. with 5% CO2 for 24 hours.
# (§4) The data analysis was performed by first determining the ΔCt vs the housekeeper gene. This ΔCt was then normalized against the DMSO control (ΔΔCt) and converted to RQ (relative quantification) using the 2^(−ΔΔCt) equation. The RQ were then converted to a percentage response by arbitrarily setting an assay window of 3.5 and 4.0 ΔCt for HTT-CJ and MYB-CJ respectively and an assay window of 9 and 3 ΔCt for HTT-AJ and MYB-AJ in 96 well format (50,000 K562 cells/well and 15,000 A673 cells per well) and an assay window of 3 and 4 ΔCt for HTT-CJ and MYB-CJ respectively and an assay window of 5 and 3 ΔCt for HTT-AJ and MYB-AJ respectively in 384 well format (8,000 K562 cells/well example). […] The percentage response was then fitted to the 4 parametric logistic equation to evaluate the concentration dependence of compound treatment. The increase in AJ mRNA is reported as AC50 (compound concentration having 50% response in AJ increase) while the decrease in CJ mRNA levels is reported as IC50 (compound concentration having 50% response in CJ decrease).
# (§5) Additional studies were carried out for a larger panel of genes using the protocol provided above. The junction between flanking upstream and downstream exons was used to design canonical junction qPCR assays. At least one of the forward primer, reverse primer or the CY5-labeled 5′ nuclease probe (with 3′ quencher such as ZEN/Iowa Black FQ) was designed to overlap with the exon junction to capture the CJ mRNA transcript. […]
# HTT mRNA [4] = test: as above
# Procedure: as §1, §2, §3, §4, §5
# MYB mRNA [5] = test: Splicing RT-qPCR assay (THP), Table 2A
# [6] = Table 2A, THP, HTT alternative junction (AJ) mRNA, read-out: HTT AJ (AC50, increase in alternative junction mRNA)
# [7] = Table 2A, THP, HTT canonical junction (CJ) mRNA, read-out: HTT CJ (IC50, decrease in canonical junction mRNA)
# [8] = decrease in CJ mRNA levels, canonical junction qPCR, gene panel
# [9] = Table 2A, THP, MYB alternative junction (AJ) mRNA, read-out: MYB AJ (AC50, increase in alternative junction mRNA)
# [10] = Table 2A, THP, MYB canonical junction (CJ) mRNA, read-out: MYB CJ (IC50, decrease in canonical junction mRNA)
# [11] = Table 2A (THP), AJ mRNA increase, read-out: HTT AJ (increase in alternative junction mRNA, AC50)
# [12] = Table 2A (THP), CJ mRNA decrease, read-out: HTT CJ (decrease in canonical junction mRNA, IC50)
# [13] = decrease in canonical junction (CJ) mRNA, gene panel qPCR, Table 3
# [14] = Table 2A (THP), AJ mRNA increase, read-out: MYB AJ (increase in alternative junction mRNA, AC50)
# [15] = Table 2A (THP), CJ mRNA decrease, read-out: MYB CJ (decrease in canonical junction mRNA, IC50)
GI50 [1] [µM],IC50 (HTT mRNA [2]; [7]) [µM],IC50 (MYB mRNA [3]; [8]) [µM],IC50 (HTT mRNA [4]; [8]) [µM],IC50 (MYB mRNA [5]; [10]) [µM],IC50 (HTT mRNA [2]; [12]) [µM],IC50 (MYB mRNA [3]; [13]) [µM],IC50 (HTT mRNA [4]; [13]) [µM],IC50 (MYB mRNA [5]; [15]) [µM],Compound,AC50 (HTT mRNA [2]; [6]) [µM],AC50 (MYB mRNA [5]; [9]) [µM],AC50 (HTT mRNA [2]; [11]) [µM],AC50 (MYB mRNA [5]; [14]) [µM]
> 10,> 10,> 10,> 10,> 10,–,–,–,–,"COc1cc2nc(C)cn2cc1NC(=O)c1c(F)cc(N2CCC(NC3CC3)CC2)c2cc(C)nn12 [Compound 626, 4-[4-(cyclopropylamino)-1-piperidyl]-6-fluoro-N-(7-methoxy-2-methylimidazo-[1,2-a]pyridin-6-yl)-2-methylpyrazolo-[1,5-a]pyridine-7-carboxamide]",> 10,> 10,–,–
1 to 10,–,–,–,–,> 10,0.1 to 1,> 10,0.1 to 1,"COc1cc2nn(C)cc2cc1NC(=O)c1c(Cl)cc(N2CCC(NC3CC3)CC2)c2cn(C)nc12 [Compound 436, 6-chloro-4-[4-(cyclopropylamino)-1-piperidyl]-N-(6-methoxy-2-methyl-indazol-5-yl)-2-methyl-indazole-7-carboxamide]",–,–,> 10,0.1 to 1
> 10,> 10,> 10,> 10,> 10,–,–,–,–,CCNC1CCN(c2ccc(C(=O)Nc3cn4cc(C)nc(CC(N)=O)c4n3)c3nn(C)cc23)CC1 [Compound 857],> 10,> 10,–,–
> 10,> 10,0.1 to 1,> 10,0.1 to 1,–,–,–,–,"Cc1cn2cc(NC(=O)c3cnc(N4CCC(NC5CC5)CC4)c4cn(C)nc34)nc2c(C)n1 [Compound 609, 4-[4-(cyclopropylamino)-1-piperidyl]-N-(6,8-dimethylimidazo [1,2-a]pyrazin-2-yl)-2-methyl-pyrazolo[4,3-c]pyridine-7-carboxamide]",> 10,< 0.1,–,–
1 to 10,1 to 10,1 to 10,1 to 10,1 to 10,–,–,–,–,COc1c(NC(=O)c2ccc(N3CCC(NC4CC4)CC3)c3cn(C)nc23)cc2cn(C)nc2c1CNS(C)(=O)=O [Compound 819],1 to 10,1 to 10,–,–
> 10,> 10,–,–,> 10,–,> 10,> 10,–,COc1cc2nn(C)cc2cc1NC(=O)c1ccc(N2CCCC(OC3CNC3)C2)c2cn(C)nc12 (stereo not drawn) [Compound 602],> 10,> 10,–,–
> 10,> 10,0.1 to 1,> 10,0.1 to 1,–,–,–,–,"CCNC1CCN(c2cc(F)c(C(=O)Nc3cn4ccnc4cc3OC)c3nn(C)cc23)CC1 [Compound 701, 4-[4-(ethylamino)-1-piperidyl]-6-fluoro-N-(7-methoxyimidazo[1,2-a]pyridin-6-yl)-2-methyl-indazole-7-carboxamide]",> 10,0.1 to 1,–,–
1 to 10,1 to 10,1 to 10,1 to 10,1 to 10,–,–,–,–,CCNC1CCN(c2ccc(C(=O)Nc3cn4cc(C)nc(CC(=O)N(C)C)c4n3)c3nn(C)cc23)CC1 [Compound 856],1 to 10,1 to 10,–,–
> 10,> 10,> 10,> 10,> 10,–,–,–,–,"Cc1cn2cc(NC(=O)c3ccc(N4CCC(NC5CC5)CC4)c4cn(C)nc34)nc2c(Cn2cnc(C(N)=O)c2)n1 [Compound 775, N-(8-((4-carbamoyl-1H-imidazol-1-yl)methyl)-6-methylimidazo[1,2-a]pyrazin-2-yl)-4-(4-(cyclopropylamino)piperidin-1-yl)-2-methyl-2H-indazole-7-carboxamide 2,2,2-trifluoroacetate]",> 10,> 10,–,–
> 10,> 10,1 to 10,> 10,1 to 10,–,–,–,–,Cn1cc2cc(NC(=O)c3ccc(N4CCC(NC5CC5)CC4)c4cn(C)nc34)cc(CNC(=N)N)c2n1 [Compound 871],> 10,1 to 10,–,–
< 0.1,–,–,–,–,< 0.1,< 0.1,< 0.1,< 0.1,"Cc1cn2cc(NC(=O)c3c(F)cc(N4CCC(NC5CC5)CC4)c4cn(C)nc34)c(Oc3ccccc3)c(F)c2n1 [Compound 377, 4-[4-(cyclopropylamino)-1-piperidyl]-6-fluoro-N-(8-fluoro-2-methyl-7-phenoxyimidazo [1,2-a]pyridin-6-yl)-2-methyl-indazole-7-carboxamide]",–,–,< 0.1,< 0.1
> 10,–,–,–,–,> 10,> 10,> 10,> 10,"COc1cc2nn(C)cc2cc1NC(=O)c1c(F)cc(NCC2CCNCC2)c2cn(C)nc12 [Compound 454, 6-fluoro-N-(6-methoxy-2-methyl-indazol-5-yl)-2-methyl-4-(4-piperidylmethylamino)indazole-7-carboxamide]",–,–,> 10,1 to 10
0.1 to 1,–,–,–,–,0.1 to 1,0.1 to 1,0.1 to 1,0.1 to 1,Cc1cn2cc(NC(=O)c3ccc(OC4CCNCC4)c4cn(C)nc34)nc2c(C)n1 [Compound 565],–,–,0.1 to 1,0.1 to 1
–,–,–,–,–,> 10,–,–,> 10,"Cc1cn2cc(NC(=O)c3ncc(N4CCC(NC5CC5)CC4)c4cn(C)nc34)nc2c(C)n1 [Compound 264, 4-[4-(cyclopropylamino)-1-piperidyl]-N-(6,8-dimethylimidazo[1,2-a]pyrazin-2-yl)-2-methyl-pyrazolo[3,4-c]pyridine-7-carboxamide]",–,–,> 10,> 10
1 to 10,–,–,–,–,–,–,–,–,"Cc1cn2cc(NC(=O)c3ccc(N4CCNCC4)c4cn(C)nc34)cc(Br)c2n1 [Compound 265, N-(8-bromo-2-methyl-imidazo[1,2-a]-pyridin-6-yl)-2-methyl-4-piperazin-1-yl-indazole-7-carboxamide]",–,–,–,–
